“And” between values parts separate entries of the source, which are not always exact repeats. Identical values can stand only once. Inconclusive results and toxic doses are left out.
Tested on: L1210 leukemia ip in BDF1 mice, survival T/C
Assay: NCI In Vivo Anticancer Drug Screen. Data for tumor model L1210 Leukemia (intraperitoneal) in B6D2F1 (BDF1) mice
Conditions: endpoint: mean survival time, higher = longer survival
In short: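 Transplantable tumor model; survival measured in treated vs vehicle control mice. Value = treated/control.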

[1] = dose: 100.0 mg/kg/injection, schedule: Q01DX001 (ip), vehicle: saline
[2] = dose: 200.0 mg/kg/injection, schedule: Q01DX001 (ip), vehicle: saline
[3] = dose: 100.0 mg/kg/injection, schedule: Q04DX002 (ip), vehicle: Klucel (hydroxypropylcellulose) (HPC)
[4] = dose: 200.0 mg/kg/injection, schedule: Q04DX002 (ip), vehicle: Klucel (hydroxypropylcellulose) (HPC)
[5] = dose: 400.0 mg/kg/injection, schedule: Q04DX002 (ip), vehicle: Klucel (hydroxypropylcellulose) (HPC)
[6] = dose: 100.0 mg/kg/injection, schedule: Q01DX009 (ip), vehicle: saline with Tween-80
[7] = dose: 200.0 mg/kg/injection, schedule: Q01DX009 (ip), vehicle: saline with Tween-80

CCOC(=O)C(C(=N)C#N)C(C)=O (stereo not drawn) was tested, and the T/C (dose: 6.25 mg/kg/injection, schedule: Q04DX003 (ip), vehicle: saline with Tween-80) was 98 % of control, the T/C (dose: 12.5 mg/kg/injection, schedule: Q04DX003 (ip), vehicle: saline with Tween-80) was 98 % of control and the T/C (dose: 25.0 mg/kg/injection, schedule: Q04DX003 (ip), vehicle: saline with Tween-80) was 97 % of control. For the same molecule, the T/C (dose: 50.0 mg/kg/injection, schedule: Q04DX003 (ip), vehicle: saline with Tween-80) was 88 % of control and the T/C (dose: 100.0 mg/kg/injection, schedule: Q04DX003 (ip), vehicle: saline with Tween-80) was 103 % of control.
With C1CCC2C(C1)CCCC2C(C1CCCC2CCCCC21)C1CCCC2CCCCC21 (stereo not drawn) the T/C (dose: 100.0 mg/kg/injection, schedule: Q01DX001 (ip), vehicle: saline with Tween-80) was 90 % of control, the T/C (dose: 200.0 mg/kg/injection, schedule: Q01DX001 (ip), vehicle: saline with Tween-80) was 90 % of control and the T/C (dose: 400.0 mg/kg/injection, schedule: Q01DX001 (ip), vehicle: saline with Tween-80) was 90 % of control.
In the case of NC(=O)N/N=C(/Cl)C(=O)NNC(N)=O, the T/C (dose: 100.0 mg/kg/injection, schedule: Q04DX002 (ip), vehicle: saline with Tween-80) is reported as 89 % of control, the T/C (dose: 200.0 mg/kg/injection, schedule: Q04DX002 (ip), vehicle: saline with Tween-80) is reported as 89 % of control and the T/C (dose: 400.0 mg/kg/injection, schedule: Q04DX002 (ip), vehicle: saline with Tween-80) is reported as 96 % of control.
In the case of Nc1cc(C(=O)Nc2ccc(C3=NCCN3)cc2)cc(C(=O)Nc2ccc(C3=NCCN3)cc2)c1, the T/C (dose: 4.0 mg/kg/injection, schedule: Q01DX Z (ip), vehicle: saline) is reported as 113 % of control, the T/C (dose: 8.0 mg/kg/injection, schedule: Q01DX004 (im), vehicle: olive oil, sesame oil, peanut oil) is reported as 95 % of control and the T/C (dose: 8.0 mg/kg/injection, schedule: Q01DX Z (ip), vehicle: saline) is reported as 107 % of control. For the same molecule, the T/C (dose: 16.0 mg/kg/injection, schedule: Q01DX004 (im), vehicle: olive oil, sesame oil, peanut oil) was 95 % of control, the T/C (dose: 16.0 mg/kg/injection, schedule: Q01DX Z (ip), vehicle: saline) was 123 % of control and the T/C (dose: 31.0 mg/kg/injection, schedule: Q01DX Z (ip), vehicle: carboxymethylcellulose (CMC)) was 168 % of control. The T/C (dose: 32.0 mg/kg/injection, schedule: Q01DX004 (im), vehicle: olive oil, sesame oil, peanut oil) was 109 % of control, the T/C (dose: 32.0 mg/kg/injection, schedule: Q01DX010 (sc), vehicle: saline) was 159 % of control and the T/C (dose: 62.0 mg/kg/injection, schedule: Q01DX Z (ip), vehicle: carboxymethylcellulose (CMC)) was 197 % of control. The T/C (dose: 62.5 mg/kg/injection, schedule: Q01DX010 (oral), vehicle: saline) was 115 % of control, the T/C (dose: 64.0 mg/kg/injection, schedule: Q01DX004 (im), vehicle: olive oil, sesame oil, peanut oil) was 114 % of control and the T/C (dose: 64.0 mg/kg/injection, schedule: Q01DX010 (sc), vehicle: saline) was 179 % of control. The T/C (dose: 64.0 mg/kg/injection, schedule: Q01DX Z (ip), vehicle: saline) was 249 % of control, the T/C (dose: 125.0 mg/kg/injection, schedule: Q01DX010 (oral), vehicle: saline) was 87 % of control and the T/C (dose: 125.0 mg/kg/injection, schedule: Q01DX Z (ip), vehicle: carboxymethylcellulose (CMC)) was 155 % of control. For the same molecule, the T/C (dose: 128.0 mg/kg/injection, schedule: Q01DX010 (sc), vehicle: saline) was 186 % of control, the T/C (dose: 128.0 mg/kg/injection, schedule: Q01DX Z (ip), vehicle: saline) was 212 % of control and the T/C (dose: 250.0 mg/kg/injection, schedule: Q01DX010 (oral), vehicle: saline) was 88 % of control. The T/C (dose: 250.0 mg/kg/injection, schedule: Q01DX Z (ip), vehicle: carboxymethylcellulose (CMC)) was 117 % of control, the T/C (dose: 500.0 mg/kg/injection, schedule: Q01DX010 (oral), vehicle: saline) was 117 % of control and the T/C (dose: 1000.0 mg/kg/injection, schedule: Q01DX010 (oral), vehicle: saline) was 115 % of control.
With O=[N+]([O-])c1cc2c(nc3ccccn32)c2ccccc12 the T/C (dose: 50.0 mg/kg/injection, schedule: Q01DX001 (ip), vehicle: saline) was 97 % of control, the T/C [1] was 96 % of control and the T/C [2] was 97 % of control.
With CN(C)CCC(C(=O)N(C)C)(c1ccccc1)c1ccccc1 the T/C (dose: 75.0 mg/kg/injection, schedule: Q01DX001 (ip), vehicle: carboxymethylcellulose (CMC)) was 94 % of control and the T/C (dose: 150.0 mg/kg/injection, schedule: Q01DX001 (ip), vehicle: carboxymethylcellulose (CMC)) was 97 % of control.
In the case of C=C1CC2OC(=O)C(=C)C2C(OC(=O)c2ccccc2)/C=C(\C)CCC1OC(=O)c1ccccc1 (stereo not drawn), the T/C [3] is reported as 108 % of control, the T/C [4] is reported as 91 % of control and the T/C [5] is reported as 97 % of control.
For c1ccc(-c2nc3ccccc3[nH]2)cc1, the T/C (dose: 55.0 mg/kg/injection, schedule: Q01DX Z (ip), vehicle: methylcellulose (MC)) was 107 % of control, the T/C (dose: 83.0 mg/kg/injection, schedule: Q01DX Z (ip), vehicle: methylcellulose (MC)) was 103 % of control and the T/C [3] was 109 % of control and 95 % of control. For the same molecule, the T/C (dose: 125.0 mg/kg/injection, schedule: Q01DX Z (ip), vehicle: methylcellulose (MC)) was 100 % of control, the T/C [4] was 103 % of control and 106 % of control and the T/C [5] was 109 % of control and 98 % of control.
In the case of COc1cc(/C=N/NC(=O)c2cccs2)cc(OC)c1OC, the T/C [6] is reported as 98 % of control, the T/C [7] is reported as 94 % of control and the T/C (dose: 400.0 mg/kg/injection, schedule: Q01DX009 (ip), vehicle: saline with Tween-80) is reported as 98 % of control.
With CCCCC(=O)N/N=C\c1c(O)cc(OC)cc1OC the T/C (dose: 100.0 mg/kg/injection, schedule: Q01DX001 (ip), vehicle: carboxymethylcellulose (CMC)) was 87 % of control, the T/C (dose: 200.0 mg/kg/injection, schedule: Q01DX001 (ip), vehicle: carboxymethylcellulose (CMC)) was 87 % of control and the T/C (dose: 400.0 mg/kg/injection, schedule: Q01DX001 (ip), vehicle: carboxymethylcellulose (CMC)) was 93 % of control.
For O=C(NNc1ccccc1)NNc1ccccc1 (tested in a mixture with another compound), the T/C (dose: 50.0 mg/kg/injection, schedule: Q01DX009 (ip), vehicle: saline with Tween-80) was 95 % of control, the T/C [6] was 95 % of control and the T/C [7] was 99 % of control.
In the case of NC1(c2ccccc2)CCCCC1, the T/C (dose: 3.12 mg/kg/injection, schedule: Q01DX009 (ip), vehicle: saline) is reported as 110 % of control, the T/C (dose: 6.25 mg/kg/injection, schedule: Q01DX009 (ip), vehicle: saline) is reported as 104 % of control and the T/C (dose: 12.5 mg/kg/injection, schedule: Q01DX009 (ip), vehicle: saline) is reported as 105 % of control. The T/C (dose: 25.0 mg/kg/injection, schedule: Q01DX009 (ip), vehicle: saline) was 103 % of control, the T/C (dose: 25.0 mg/kg/injection, schedule: Q04DX003 (ip), vehicle: saline) was 98 % of control and the T/C (dose: 50.0 mg/kg/injection, schedule: Q01DX009 (ip), vehicle: saline) was 105 % of control. The T/C (dose: 50.0 mg/kg/injection, schedule: Q04DX003 (ip), vehicle: saline) was 101 % of control.
For CN=C(NC)c1ccc(NC(=O)c2cc(C)cc(C(=O)Nc3ccc(C(=NC)NC)cc3)c2)cc1, the T/C (dose: 1.88 mg/kg/injection, schedule: Q01DX Z (ip), vehicle: saline) was 89 % of control, the T/C (dose: 3.75 mg/kg/injection, schedule: Q01DX Z (ip), vehicle: saline) was 91 % of control and the T/C (dose: 7.5 mg/kg/injection, schedule: Q01DX Z (ip), vehicle: saline) was 91 % of control. For the same molecule, the T/C (dose: 15.0 mg/kg/injection, schedule: Q01DX Z (ip), vehicle: saline) was 98 % of control and 107 % of control and the T/C (dose: 30.0 mg/kg/injection, schedule: Q01DX Z (ip), vehicle: saline) was 101 % of control.
C=CCn1c(=O)n(CC=C)c(=O)n(CC=C)c1=O was tested, and the T/C [1] was 108 % of control, the T/C (dose: 100.0 mg/kg/injection, schedule: Q04DX003 (ip), vehicle: carboxymethylcellulose (CMC)) was 106 % of control and the T/C [2] was 102 % of control. For the same molecule, the T/C (dose: 200.0 mg/kg/injection, schedule: Q04DX003 (ip), vehicle: carboxymethylcellulose (CMC)) was 92 % of control, the T/C (dose: 400.0 mg/kg/injection, schedule: Q01DX001 (ip), vehicle: saline) was 104 % of control and the T/C (dose: 400.0 mg/kg/injection, schedule: Q04DX003 (ip), vehicle: carboxymethylcellulose (CMC)) was 95 % of control.
